Read-outs that look alike come from different tables or passages of the source.
Target: T1, cloned human dopamine D3 receptors (Homo sapiens, UniProt P35462)
T1 construct: expressed in transfected cells; membrane homogenate
Experiment: [N-Methyl-3H]Spiroperidol binding to cloned human dopamine D3 receptors
Method in brief: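 Radioligand displacement with [N-methyl-3H]spiroperidol was run on membranes from a high-expressing CHO clone carrying human D3. Membranes were prepared in 10% DMSO and stored at −80° C.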

T1 sequence (P35462 whole entry): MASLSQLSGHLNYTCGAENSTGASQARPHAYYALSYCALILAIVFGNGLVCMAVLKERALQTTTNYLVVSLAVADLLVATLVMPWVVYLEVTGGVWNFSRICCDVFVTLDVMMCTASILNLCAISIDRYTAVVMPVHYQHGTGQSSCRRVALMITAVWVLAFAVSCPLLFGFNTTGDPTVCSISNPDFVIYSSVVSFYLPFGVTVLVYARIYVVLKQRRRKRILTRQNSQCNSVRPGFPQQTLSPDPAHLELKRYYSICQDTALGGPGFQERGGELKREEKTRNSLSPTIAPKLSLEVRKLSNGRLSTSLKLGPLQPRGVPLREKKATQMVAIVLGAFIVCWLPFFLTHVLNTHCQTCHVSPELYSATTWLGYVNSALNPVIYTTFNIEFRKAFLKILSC

Row | SMILES | Ki (read-out: D3 Ki) | Ki (read-out: d3Ki)
1 | Cn1nc(C2CCN(C[C@@H]3C[C@H]3C(=O)NCC3CCN(C(=O)OC(C)(C)C)CC3)CC2)c2sccc21 [A002438641] | 62.8 nM | –
2 | O=C([C@H](O)CCN1CCC(c2noc3ccsc23)CC1)N1CCCCC1 [compound 830558] | 34.2 nM | –
3 | O=C(NCCS(=O)(=O)c1cccc2cnccc12)C1CC1CN1CCC(c2noc3ccsc23)CC1 (racemic) [compound 832044] | 657 nM | –
4 | COc1cccc2c(C3CCN(C[C@@H]4C[C@H]4C(=O)NCC45CC6CC(CC(C6)C4)C5)CC3)nn(C)c12 [compound 834057] | 89.4 nM | –
5 | O=C(NCCCN1CCCCC1)[C@@H]1C[C@H]1CN1CCC(c2csc3cc(C(F)(F)F)ccc23)CC1 [compound 834015] | 1.24 nM | –
6 | CC1CCC(NC(=O)C2CC2CN2CCN(c3n[nH]c4ccccc34)CC2)CC1 (racemic) [compound 830116] | 13.1 nM | –
7 | COc1c(F)ccc2c(C3CCN(CCC4(C(=O)N[C@H]5CC[C@H](O)CC5)CC4)CC3)noc12 [compound 833476] | 131 nM | –
8 | O=C(NC1CCN(Cc2ccc(Cl)cc2)CC1)[C@@H]1C[C@H]1CN1CCC(c2noc3ccsc23)CC1 [compound 832729] | 1.67 nM | –
9 | CC1CCC(NC(=O)C2CC2CN2CCC(n3c(=O)[nH]c4ccccc43)CC2)CC1 (racemic) [compound 827211] | 353 nM | –
10 | CCC1CCC(NC(=O)C2CC2CN2CCN(c3nn(-c4ccccc4)c4cc(F)ccc34)CC2)CC1 (racemic) [compound 830129] | 4.16 nM | –
11 | CC1CCC(NC(=O)C2CC2CN2CCN(c3n[nH]c4cc(Cl)ccc34)CC2)CC1 (racemic) [compound 830124] | 1.84 nM | –
12 | O=C([C@@H]1C[C@H]1CN1CCC(c2nsc3cc(Br)ccc23)CC1)N1CCC(Cn2ccnc2)CC1 [A002329098] | 345 nM | –
13 | O=C(N[C@H]1CC[C@H](O)CC1)[C@@H]1C[C@H]1CN1CCN(c2nn(-c3cccc(F)c3)c3ccsc23)CC1 [A002243404] | 492 nM | –
14 | CCC1CCC(NC(=O)C2CC2CN2CCC(c3ccccc3Cc3ccccc3)CC2)CC1 (racemic) [compound 830132] | 9.26 nM | –
15 | Cn1nc(C2CCN(C[C@@H]3C[C@H]3C(=O)N3CCC(N4CCCCC4)CC3)CC2)c2cccc(C(F)(F)F)c21 [compound 833091] | 118 nM | –
16 | CC(C)(C)OC(=O)N1CCCCC1CCNC(=O)[C@@H]1C[C@H]1CN1CCC(c2noc3ccsc23)CC1 (mixture of isomers) [compound 832533] | 4.12 nM | –
17 | O=C(NCc1ccc2ccccc2c1)C1CC1CN1CCC(c2noc3ccsc23)CC1 (racemic) [compound 831454] | 1.86 nM | –
18 | O=C(NC1CCN(Cc2ccc(F)cc2)CC1)[C@@H]1C[C@H]1CN1CCC(c2noc3ccsc23)CC1 [compound 832732] | 0.74 nM | –
19 | O=C(c1ccc(Cl)cc1)C1CCN(C(=O)[C@@H]2C[C@H]2CN2CCN(c3csc4cc(C(F)(F)F)ccc34)CC2)CC1 [compound 831882] | 57.3 nM | –
20 | O=C(N[C@H]1CC[C@H](O)CC1)[C@@H]1C[C@H]1CN1CCN(c2nn(-c3ccccc3)c3ccsc23)CC1 [compound 832816] | 2.57 nM | –
21 | O=C(NC1CCN(Cc2cccc3ccccc23)CC1)C1CC1CN1CCC(c2noc3ccsc23)CC1 (racemic) [compound 831822] | 1.38 nM | –
22 | CC(C)(C)OC(=O)N1CC[C@@H](CNC(=O)[C@@H]2C[C@H]2CN2CCC(c3noc4ccsc34)CC2)C1 [compound 833373] | 65.5 nM | –
23 | C[C@H]1CC[C@H](NC(=O)[C@@H]2CC[C@H]2CN2CCN(c3noc4ccsc34)CC2)CC1 (racemic) [compound 829996] | 277 nM | –

Row | SMILES | Ki (read-out: D3 Ki) | Ki (read-out: d3Ki)
24 | O=C(NCCCCc1cccnc1)C1CC1CN1CCC(c2noc3ccsc23)CC1 (racemic) [compound 831686] | 25.3 nM | –
25 | O=C([C@@H]1C[C@H]1CN1CCC(c2noc3ccsc23)CC1)N1CCC(n2ccnc2)CC1 [compound 833164] | 52.5 nM | –
26 | O=C(NCCc1ccc(Cl)cc1)C1CC1CN1CCC(c2noc3ccsc23)CC1 (racemic) [compound 831800] | 5 nM | –
27 | O=C(NC1CCN(Cc2ccc(F)cc2F)CC1)[C@@H]1C[C@H]1CN1CCC(c2noc3ccsc23)CC1 [compound 833167] | 1.57 nM | –
28 | O=C(NC1CCN(Cc2cc(F)cc(F)c2)CC1)[C@@H]1C[C@H]1CN1CCC(c2noc3ccsc23)CC1 [compound 833166] | 1.72 nM | –
29 | O=C(NCCCn1ccnc1-c1ccccc1)[C@@H]1C[C@H]1CN1CCC(c2noc3ccsc23)CC1 [compound 831378] | 35.6 nM | –
30 | Cn1nc(N2CCN(C[C@@H]3C[C@H]3C(=O)N3CCC(n4ccnc4)CC3)CC2)c2sccc21 [compound 832207] | 54.8 nM | –
31 | O=C(NC1CCN(Cc2ccc(F)cc2F)CC1)C1CC1CN1CCC(c2noc3ccsc23)CC1 (racemic) [compound 832344] | 2.76 nM | –
32 | O=C(NCCc1ccccc1)C1(CCN2CCN(c3csc4cc(C(F)(F)F)ccc34)CC2)CC1 [compound 832519] | 97.5 nM | –
33 | O=C(NC1CCN(Cc2cccnc2)CC1)[C@@H]1C[C@H]1CN1CCC(c2noc3ccsc23)CC1 [compound 833485] | 2.99 nM | –
34 | O=C([C@@H]1C[C@H]1CN1CCC(c2noc3ccsc23)CC1)N1CCC(c2ccccc2)CC1 [compound 831193] | 23.8 nM | –
35 | O=C(NC1CCN(Cc2ccc(Cl)c(Cl)c2)CC1)[C@@H]1C[C@H]1CN1CCC(c2noc3ccsc23)CC1 [compound 832731] | 0.699 nM | –
36 | O=C(NC1CCN(Cc2ccccc2Cl)CC1)[C@@H]1C[C@H]1CN1CCC(c2noc3ccsc23)CC1 [compound 832730] | 3.62 nM | –
37 | CN(C(=O)CCCCN1CCN(c2csc3cc(F)ccc23)CC1)c1ccc(C(C)(C)C)cc1 [compound 822140] | – | 113 nM
38 | Cn1nc(C2CCN(C[C@@H]3C[C@H]3C(=O)NCC3CCNCC3)CC2)c2cccc(C(F)(F)F)c21 [A002440433A] | 180 nM | –
39 | Cc1nc(Cl)c(Cl)n1CCCNC(=O)[C@@H]1C[C@H]1CN1CCN(c2csc3cc(C(F)(F)F)ccc23)CC1 [compound 832512] | 15.7 nM | –
40 | O=C(NCCOc1ccccc1)[C@@H]1C[C@H]1CN1CCC(c2noc3ccsc23)CC1 [compound 831343] | 13.7 nM | –
41 | Cc1cc(NC(=O)C2CC2CN2CCC(c3noc4ccsc34)CC2)sn1 (racemic) [compound 829463] | 4.76 nM | –
42 | O=C(NCCCN1CCCCC1)[C@@H]1C[C@H]1CN1CCC(c2cc3ccccc3s2)CC1 [compound 832714] | 12.4 nM | –
43 | CN1CCN(CCCNC(=O)[C@@H]2C[C@H]2CN2CCC(c3nn(-c4ccccc4)c4ccsc34)CC2)CC1 [A002439263] | 30.6 nM | –
44 | CC1CCC(NC(=O)C2CC2CN2CCN(Cc3ccccc3)CC2)CC1 (racemic) [compound 827202] | 177 nM | –
45 | O=C([C@@H]1C[C@H]1CN1CCC(c2noc3ccsc23)CC1)N1CCN(Cc2ccc(Cl)c(Cl)c2)CC1 [compound 832532] | 14.4 nM | –
46 | O=C([C@@H]1C[C@H]1CN1CCN(c2csc3cc(C(F)(F)F)ccc23)CC1)N1CCC[C@H](Cn2ccnc2)C1 [compound 833098] | 8.84 nM | –

Row | SMILES | Ki (read-out: D3 Ki) | Ki (read-out: d3Ki)
47 | O=C(NCCS(=O)(=O)c1cccc2c(Cl)cccc12)C1CC1CN1CCC(c2noc3ccsc23)CC1 (racemic) [compound 831689] | 16.4 nM | –
48 | COc1cccc2c(C3CCN(C[C@@H]4C[C@H]4C(=O)N[C@H]4CC[C@H](C)CC4)CC3)noc12 [compound 831809] | 0.0284 nM | –
49 | O=C([C@@H]1C[C@H]1CN1CCN(c2csc3cc(C(F)(F)F)ccc23)CC1)N1CCC(N2CCCC2)CC1 [compound 832510] | 25 nM | –
50 | COc1cccc2c(C3CCN(C[C@@H]4C[C@H]4C(=O)NCCCc4ccccc4)CC3)noc12 [compound 832102] | 81.5 nM | –
51 | O=C(NCCc1ccccc1)[C@@H]1C[C@H]1CN1CCC(c2noc3ccsc23)CC1 [compound 830829] | 5.3 nM | –
52 | CCOC(=O)[C@H]1CC[C@H](NC(=O)CCCN2CCN(c3csc4cc(C(F)(F)F)ccc34)CC2)CC1 [compound 826805] | – | 14.2 nM
53 | CC1CCC(NC(=O)C2CC2CN2CCN(c3nn(-c4ccccc4F)c4ccccc34)CC2)CC1 (racemic) [compound 830114] | 5.42 nM | –
54 | O=C(NCCCn1ccnc1)[C@@H]1C[C@H]1CN1CCC(c2cc3ccccc3s2)CC1 [compound 831488] | 0.725 nM | –
55 | O=C(NCCCc1cccnc1)[C@@H]1C[C@H]1CN1CCC(c2noc3ccsc23)CC1 [compound 831195] | 1.84 nM | –
56 | O=C([C@@H]1C[C@H]1CN1CCN(c2csc3ncccc23)CC1)N1CCC[C@@H](Cn2ccnc2)C1 [A002437802] | 0.251 nM | –
57 | COc1ccc(CN2CCN(C(=O)C3CC3CN3CCC(c4noc5ccsc45)CC3)CC2)cc1 (racemic) [compound 832155] | 0.434 nM | –
58 | O=C(C1CC1CN1CCC(c2noc3ccsc23)CC1)N1CC=CC1 (racemic) [compound 829594] | 364 nM | –
59 | O=C([C@@H]1C[C@H]1CN1CCN(c2csc3cc(F)ccc23)CC1)N1CCC(O)CC1 [compound 828716] | 2.38 nM | –
60 | O=C(NCCCn1ccnc1)[C@@H]1C[C@H]1CN1CCC(c2noc3cc(C(F)(F)F)ccc23)CC1 [A002287765, 2R-[4-(6-Trifluoromethyl-benzo[d]isoxazol-3-yl)-piperidin-1-ylmethyl]-1R-cycloproanecarboxylic acid (3-imidazol-1-yl-propyl)-amide] | 0.011 nM | –
61 | COc1ccc(N2CCN(CC3CC3C(=O)NC3CCC(C)CC3)C(C)C2)cc1 (racemic) [compound 827192] | 150 nM | –
62 | O=C([C@@H]1C[C@H]1CN1CCC(c2noc3ccc(C(F)(F)F)cc23)CC1)N1CCCC(Cn2ccnc2)C1 (mixture of isomers) [A002200835] | 0.4 nM | –
63 | CCCCn1nc(N2CCN(C[C@@H]3C[C@H]3C(=O)NCCCn3ccnc3)CC2)c2sccc21 [A002202401] | 205 nM | –
64 | Cc1ncc([N+](=O)[O-])n1CCNC(=O)[C@@H]1C[C@H]1CN1CCC(c2noc3ccsc23)CC1 [compound 831379] | 46.7 nM | –
65 | CN(C)CCCNC(=O)[C@@H]1C[C@H]1CN1CCN(c2csc3cc(C(F)(F)F)ccc23)CC1 [compound 831888] | 17.5 nM | –
66 | O=C(NCCCN1CCCCC1)C1(CCN2CCN(c3csc4cc(C(F)(F)F)ccc34)CC2)CC1 [compound 833475] | 22.4 nM | –
67 | O=C(NNC(=O)C1CC1CN1CCC(c2noc3ccsc23)CC1)c1ccc(Cl)cc1 (racemic) [compound 831812] | 453 nM | –

— patent US7772252B2, “Heterocyclic substituted carbonyl derivatives and their use as dopamine D3 receptor ligands” (Aventis Pharmaceuticals Inc., priority 2001, dated 2010)
